Measured values: patent publication US20190374554A1, “USE OF OXYGENATED CHOLESTEROL SULFATES (OCS) TO TREAT INFLAMMATORY SKIN DISEASE AND SKIN LESIONS” (Virginia Commonwealth University, priority 2016, published 2019)
Entries after “also recorded” stand apart in the source; their conditions may differ.

Legend:
[1] = test system: chronic dermatitis; test: Case report: topical therapy of chronic dermatitis following poison ivy attack; format: in vivo, Human; conditions: one person, topical once every three days, three applications
Description: A case report: A volunteer had been suffering from chronic dermatitis with intense itching following a poison ivy attack two years earlier. The affected area was externally treated with 0.5 ml of 5 mg/ml of 25HC3S sodium salt in a body lotion (Cococare®, Vitamin E Cream) once every three days for a total of three applications.

[2] = First cadaver skin flux study (radiolabelled 25HC3S, diffusion cells, % dose recovered); format: in vitro ADME; conditions: from comparison of formulations in cadaver skin study
Description: The formulations shown in the below Table 22 were made. Each of the below formulations containing drug included 1 wt % non-radiolabelled 25HC3S since the maximum drug loading achieved in Carbopol based creams or gels was 1 wt %. In positive control C1, 20 wt % DMSO was included in EtOH to achieve 1 wt % drug loading.
The procedure for mixing radiolabelled C^14-25HC3S with each formulation was as follows. Formulation (1 mL of each) was placed into 1 mL vials. To each vial was added 5 μL EtOH containing hot material ([…] radiolabelled 25HC3S). The mixture was mixed using a small plunger for 4 to 5 minutes until uniform.
The above formulations were tested on cadaver skin as follows. Dermatomed cadaver skin was obtained from thigh and abdominal areas. A total of 4 donor skin samples (4 separate experiments) were used in the study. Skin samples were placed on diffusion cells (see below) at least 2 hours prior to dosing. Skin sample integrity was examined by measuring […] water loss (TEWL).
The diffusion cells had 1 cm^2 surface area. Each sample at each testing point had 2-3 replicates.
The dose was 10-25 μL of formulation each containing 0.2-0.5 μCi radioactivity per diffusion cell.
The receptor fluid was 6% PEG 400 in PBS. The receptor fluid flow rate was continuous flow at 4.7 mL/hr.
For dose application, the net amount was determined by weight difference before and after dosing application.
The total skin exposure time was 24 hours. After 8 hours of skin exposure, skin surface dose residues were removed by 5% soap-water washing as follows: (1) two times with small cotton balls wetted with 5% clear Ivory® liquid soap (Proctor and Gamble); and (2) two times with cotton balls wetted with distilled de-ionized water to recover the residual drug content, and a final drying with a dry cotton ball. After 16 hours of additional skin exposure (after skin washing), the experiment was finished.
The dosed skin was first tape stripped 10 times followed with heat separation of viable epidermis and dermis. Receptor fluid samples were collected at 30 min, 1 hour, 2 hour, and every 2 hours until the end of the experiment. All samples were counted for radioactivity

| Compound | itching, redness and swelling ([1]; 0.5 ml of 5 mg/ml in body lotion (Cococare Vitamin E Cream)) | skin recovery ([1]; 0.5 ml of 5 mg/ml in body lotion) | trend as permeation enhancer (PE) [2] |
| --- | --- | --- | --- |
| C[C@H](CCCC(C)(C)O)[C@H]1CC[C@H]2[C@@H]3CC=C4CC(OS(=O)(=O)[O-])CC[C@]4(C)[C@H]3CC[C@]12C.[Na+] (stereo partly drawn) [25HC3S sodium salt, 5-cholesten-3, 25-diol, 3-sulfate] | Within two days, the itching subsided, and redness and swelling decreased | almost completely recovered in 10 days | – |
| CCO [EtOH, ethanol] | – | – | high PE; also recorded: great permeation enhancer |
| CCCCCCCCCCCCOC(=O)C(C)O (stereo not drawn) [LL, Lauryl lactate] | – | – | may be more effective than PG |
| CC(O)CO (stereo not drawn) [PG, propylene glycol] | – | – | may be about the same as OA; also recorded: good permeation enhancer |
| PEG 400 | – | – | poor permeation enhancer |
